{
  "source": "patent US11707442B2",
  "about": "“Antibacterial and antifungal compounds” (The General Hospital Corporation, priority 2015, dated 2023)",
  "key": {"[1]": {"tested_on": "E. faecium", "experiment": "MIC, broth microdilution", "assay_type": "cell-based, Enterococcus faecium", "conditions": "Enterococcus faecium", "source_text": "(§1) Bacterial strains and growth conditions and persister isolation: methicillin-resistant S. aureus (MRSA) strain MW2 BAA-1707, vancomycin-resistant S. aureus strain VRS 1, 11 clinical S. aureus isolates, 8 clinical Enterococcus faecium isolates, Klebsiella pneumoniae WGLW2 (BEI Resources, Manassas, Va., USA), Acinetobacter baumannii ATCC 17978, Pseudomonas aeruginosa PA14, and Enterobacter aerogenes ATCC 13048 were used to test antimicrobial activity (See Table 1a). S. aureus and E. faecium strains were grown in tryptic soy broth (TSB) (BD, Franklin Lakes, N.J., USA) or brain-heart infusion (BHI) broth (BD, Franklin Lakes, N.J., USA), respectively at 37° C. at 225 rpm. K. pneumoniae, A. baumannii, P. aeruginosa, and E. aerogenes were grown in Luria Bertani (LB) broth (BD, Franklin Lakes, N.J., USA).\n(§2) To test the bacterial MICs for compounds described herein, the total volume in each well was 100 μl of test compounds and bacterial cells in MH broth. […] The bacterial concentration was adjusted to an initial OD600 of 0.03. After incubation at 35° C. for 18 hrs, the absorbance was measured at 595 nm in accordance with CLSI document M07-A8. The MICs of antibiotics were determined by the standard microdilution method recommended by the Clinical and Laboratory Standards Institute."}, "[2]": {"tested_on": "S. aureus", "experiment": "Minimal inhibitory concentration (MIC), broth microdilution", "assay_type": "cell-based, Staphylococcus aureus", "conditions": "Staphylococcus aureus", "source_text": "as §1, §2"}, "[3]": {"tested_on": "S. aureus MW2 (MRSA) in neutropenic mouse thigh", "conditions": "previous study (Conlon 2013); cited from earlier work"}, "[4]": {"tested_on": "A. baumannii", "experiment": "MIC, broth microdilution", "assay_type": "cell-based, Acinetobacter baumannii", "conditions": "Acinetobacter baumannii, ATCC17978, read-out: Minimum inhibitory concentration", "source_text": "as §1, §2"}, "[5]": {"tested_on": "P. aeruginosa", "experiment": "MIC, broth microdilution", "assay_type": "cell-based, Pseudomonas aeruginosa", "conditions": "Pseudomonas aeruginosa, PA14, read-out: Minimum inhibitory concentration", "source_text": "as §1, §2"}, "[6]": {"tested_on": "K. pneumonia WGLW2", "experiment": "MIC, broth microdilution", "assay_type": "cell-based, Klebsiella pneumoniae", "conditions": "Klebsiella pneumoniae, WGLW2, read-out: Minimum inhibitory concentration", "source_text": "as §1, §2"}, "[7]": {"tested_on": "E. aerogenes ATCC 13048", "experiment": "MIC, broth microdilution", "assay_type": "cell-based, Enterobacter aerogenes", "conditions": "Klebsiella aerogenes, ATCC13048, read-out: Minimum inhibitory concentration", "source_text": "as §1, §2"}},
  "note": "Where two headings read alike, the source gives them in different places.",
  "data": [
    {"compound": "CN[C@H](CC(C)C)C(=O)N[C@H]1C(=O)N[C@@H](CC(N)=O)C(=O)N[C@H]2C(=O)N[C@H]3C(=O)N[C@H](C(=O)N[C@H](C(=O)O)c4cc(O)cc(O)c4-c4cc3ccc4O)[C@H](O)c3ccc(c(Cl)c3)Oc3cc2cc(c3O[C@@H]2O[C@H](CO)[C@@H](O)[C@H](O)[C@H]2O[C@H]2C[C@](C)(N)[C@H](O)[C@H](C)O2)Oc2ccc(cc2Cl)[C@H]1O", "note": "[Vancomycin, vancomycin]", "values": [
      {"measurement": "MIC", "setting": "[1]; read-out: Minimum inhibitory concentration, E. faecium C68", "value": 64, "unit": "µg/mL"},
      {"measurement": "MIC", "setting": "[1]; read-out: Minimum inhibitory concentration, E. faecium D14", "value": 2, "unit": "µg/mL"},
      {"measurement": "MIC", "setting": "[1]; read-out: Minimum inhibitory concentration, E. faecium D24", "value": 1, "unit": "µg/mL"},
      {"measurement": "MIC", "setting": "[1]; read-out: Minimum inhibitory concentration, E. faecium D25", "value": 1, "unit": "µg/mL"},
      {"measurement": "MIC", "setting": "[1]; read-out: Minimum inhibitory concentration, E. faecium D29", "value": 2, "unit": "µg/mL"},
      {"measurement": "MIC", "setting": "[1]; read-out: Minimum inhibitory concentration, E. faecium E007", "value": 1, "unit": "µg/mL"},
      {"measurement": "MIC", "setting": "[1]; read-out: Minimum inhibitory concentration, E. faecium WB213", "value": 16, "unit": "µg/mL"},
      {"measurement": "MIC", "setting": "[1]; read-out: Minimum inhibitory concentration, E. faecium WC176", "value": 64, "unit": "µg/mL"},
      {"measurement": "MIC", "setting": "[2]; S. aureus MW2 mutant SP1-8 (graS)", "value": 0.5, "unit": "µg/mL"},
      {"measurement": "MIC", "setting": "[2]; S. aureus MW2 mutant SP1-48 (graS, manA)", "value": 0.5, "unit": "µg/mL"},
      {"measurement": "MIC", "setting": "[2]; S. aureus MW2 mutant SP1-74 (graS, manA, MW2474)", "value": 0.5, "unit": "µg/mL"},
      {"measurement": "MIC", "setting": "[2]; S. aureus MW2 mutant SP1-100 (graS, manA, MW2474)", "value": 0.5, "unit": "µg/mL"},
      {"measurement": "MIC", "setting": "[2]; S. aureus MW2 mutant SP2-13 (yjbH)", "value": 1, "unit": "µg/mL"},
      {"measurement": "MIC", "setting": "[2]; S. aureus MW2 mutant SP2-52 (yjbH, dltB)", "value": 0.5, "unit": "µg/mL"},
      {"measurement": "MIC", "setting": "[2]; S. aureus MW2 mutant SP2-59 (yjbH, dltB, manA)", "value": 0.5, "unit": "µg/mL"},
      {"measurement": "MIC", "setting": "[2]; S. aureus MW2 mutant SP2-65 (yjbH, dltB, manA, MW1685)", "value": 0.5, "unit": "µg/mL"},
      {"measurement": "MIC", "setting": "[2]; S. aureus MW2 mutant SP2-100 (yjbH dltB, manA, MW1685)", "value": 0.5, "unit": "µg/mL"},
      {"measurement": "MIC", "setting": "[2]; S. aureus MW2 serial passage culture SP1-1 (no mutated gene)", "value": 1, "unit": "µg/mL"},
      {"measurement": "MIC", "setting": "[2]; S. aureus MW2 serial passage culture SP2-1 (no mutated gene)", "value": 1, "unit": "µg/mL"},
      {"measurement": "MIC", "setting": "[2]; read-out: Drug MIC, Staphylococcus aureus clinical isolate BF1 (Table 5)", "value": 2, "unit": "µg/mL"},
      {"measurement": "MIC", "setting": "[2]; read-out: Drug MIC, Staphylococcus aureus clinical isolate BF2 (Table 5)", "value": 2, "unit": "µg/mL"},
      {"measurement": "MIC", "setting": "[2]; read-out: Drug MIC, Staphylococcus aureus clinical isolate BF3 (Table 5)", "value": 4, "unit": "µg/mL"},
      {"measurement": "MIC", "setting": "[2]; read-out: Drug MIC, Staphylococcus aureus clinical isolate BF4 (Table 5)", "value": 2, "unit": "µg/mL"},
      {"measurement": "MIC", "setting": "[2]; read-out: Drug MIC, Staphylococcus aureus clinical isolate BF5 (Table 5)", "value": 2, "unit": "µg/mL"},
      {"measurement": "MIC", "setting": "[2]; read-out: Drug MIC, Staphylococcus aureus clinical isolate BF6 (Table 5)", "value": 2, "unit": "µg/mL"},
      {"measurement": "MIC", "setting": "[2]; read-out: Drug MIC, Staphylococcus aureus clinical isolate BF7 (Table 5)", "value": 2, "unit": "µg/mL"},
      {"measurement": "MIC", "setting": "[2]; read-out: Drug MIC, Staphylococcus aureus clinical isolate BF8 (Table 5)", "value": 2, "unit": "µg/mL"},
      {"measurement": "MIC", "setting": "[2]; read-out: Drug MIC, Staphylococcus aureus clinical isolate BF9 (Table 5)", "value": 2, "unit": "µg/mL"},
      {"measurement": "MIC", "setting": "[2]; read-out: Drug MIC, Staphylococcus aureus clinical isolate BF10 (Table 5)", "value": 2, "unit": "µg/mL"},
      {"measurement": "MIC", "setting": "[2]; read-out: Drug MIC, Staphylococcus aureus clinical isolate BF11 (Table 5)", "value": 2, "unit": "µg/mL"},
      {"measurement": "MIC", "setting": "[2]; read-out: Minimum inhibitory concentration, S. aureus BF1", "value": 1, "unit": "µg/mL"},
      {"measurement": "MIC", "setting": "[2]; read-out: Minimum inhibitory concentration, S. aureus BF2", "value": 1, "unit": "µg/mL"},
      {"measurement": "MIC", "setting": "[2]; read-out: Minimum inhibitory concentration, S. aureus BF3", "value": 1, "unit": "µg/mL"},
      {"measurement": "MIC", "setting": "[2]; read-out: Minimum inhibitory concentration, S. aureus BF4", "value": 0.5, "unit": "µg/mL"},
      {"measurement": "MIC", "setting": "[2]; read-out: Minimum inhibitory concentration, S. aureus BF5", "value": 0.5, "unit": "µg/mL"},
      {"measurement": "MIC", "setting": "[2]; read-out: Minimum inhibitory concentration, S. aureus BF6", "value": 0.5, "unit": "µg/mL"},
      {"measurement": "MIC", "setting": "[2]; read-out: Minimum inhibitory concentration, S. aureus BF7", "value": 0.5, "unit": "µg/mL"},
      {"measurement": "MIC", "setting": "[2]; read-out: Minimum inhibitory concentration, S. aureus BF8", "value": 0.5, "unit": "µg/mL"},
      {"measurement": "MIC", "setting": "[2]; read-out: Minimum inhibitory concentration, S. aureus BF9", "value": 0.5, "unit": "µg/mL"},
      {"measurement": "MIC", "setting": "[2]; read-out: Minimum inhibitory concentration, S. aureus BF10", "value": 0.5, "unit": "µg/mL"},
      {"measurement": "MIC", "setting": "[2]; read-out: Minimum inhibitory concentration, S. aureus BF11", "value": 1, "unit": "µg/mL"},
      {"measurement": "MIC", "setting": "[2]; read-out: Minimum inhibitory concentration, S. aureus MW2", "value": 1, "unit": "µg/mL"},
      {"measurement": "MIC", "setting": "[2]; read-out: Minimum inhibitory concentration, S. aureus VRS1", "value": "> 64", "unit": "µg/mL"},
      {"measurement": "reduction of MRSA CFUs in the deep-seated mouse thigh infection model", "setting": "[3]", "value": "unable to significantly reduce"},
      {"measurement": "MIC", "setting": "[4]", "value": "> 64", "unit": "µg/mL"},
      {"measurement": "MIC", "setting": "[5]", "value": "> 64", "unit": "µg/mL"},
      {"measurement": "MIC", "setting": "[6]", "value": "> 64", "unit": "µg/mL"},
      {"measurement": "MIC", "setting": "[7]", "value": "> 64", "unit": "µg/mL"}
    ]}
  ]
}
